| SMILES | melting point |
| --- | --- |
| COc1cc2c(cc1OCc1ccccc1)CCCC(=O)N2Cc1cc(OC)c(OC)c(OC)c1 [compound 318, 7-benzyloxy-8-methoxy-1-(3,4,5-trimethoxybenzyl)-4,5-dihydro-1H-benzo[b]azepin-2(3H)-one] | 129 to 130 °C |
| COc1cc2c(cc1O)CCC(=O)N2Cc1cc(OC)c(OC)c(OC)c1 [compound 293, 6-Hydroxy-7-methoxy-1-(3,4,5-trimethoxybenzyl)-3,4-dihydro-1H-quinolin-2-one] | 157 to 158 °C |
| COc1cc2c(cc1OCc1ccccc1)CCN(Cc1cccc(O[Si](C(C)C)(C(C)C)C(C)C)c1)C2 | 78 to 79 °C |
| COc1cc2c(cc1O)CCCN(Cc1cc(OC)c(OC)c(OC)c1)C2 [compound 309, 7-Hydroxy-8-methoxy-2-(3,4,5-trimethoxybenzyl)-2,3,4,5-tetrahydro-1H-benzo[c]azepine] | 46 to 48 °C |
| COc1cc2c(cc1OCc1ccccc1)CCN(Cc1cccc(NS(C)(=O)=O)c1)C2 [compound 36, 6-(Benzyloxy)-2-(3-methanesulfonylaminobenzyl)-7-methoxy-1,2,3,4-tetrahydroisoquinoline] | 132 to 133 °C |
| COc1cc2c(cc1O)CCN(Cc1cccc(OC(C)=O)c1)C2 [compound 51, 6-Hydroxy-7-methoxy-2-(3-acetoxybenzyl)-1,2,3,4-tetrahydroisoquinoline] | 120 to 122 °C |
| COc1cc2c(cc1O)CCN(Cc1cccnc1)C2 [compound 47, 6-Hydroxy-7-methoxy-2-(pyridin-3-ylmethyl)-1,2,3,4-tetrahydroisoquinoline] | 165 to 166 °C |
| COc1ccc(CN2CCCc3cc(O)c(OC)cc3C2)cc1 [compound 308, 7-Hydroxy-8-methoxy-2-(4-methoxybenzyl)-2,3,4,5-tetrahydro-1H-benzo[c]azepine] | 105 to 107 °C |
| COc1cc2c(cc1OCc1ccccc1)CCCN(Cc1cc(OC)c(OC)c(OC)c1)C2 [compound 305, 7-Benzyloxy-8-methoxy-2-(3,4,5-trimethoxybenzyl)-2,3,4,5-tetrahydro-1H-benzo[c]azepine] | 44 to 46 °C |
| COc1cc2c(cc1O)CCCC(=O)N2Cc1cc(OC)c(OC)c(OC)c1 [compound 319, 7-Hydroxy-8-methoxy-1-(3,4,5-trimethoxybenzyl)-4,5-dihydro-1H-benzo[b]azepin-2(3H)-one] | 170 to 171 °C |
| COc1ccc(CN2CCc3cc(OCc4ccccc4)c(OC)cc3C2)cc1OC [compound 18, 6-Benzyloxy-7-methoxy-2-(3,4-dimethoxybenzyl)-1,2,3,4-tetrahydroisoquinoline] | 98 to 99 °C |
| COc1ccc(C(=O)CN2CCc3cc(OCc4ccccc4)c(OC)cc3C2)cc1OC [compound 15, 6-Benzyloxy-2-(2-(3,4-dimethoxyphenyl)-2-oxoethyl)-7-methoxy-1,2,3,4-tetrahydroisoquinoline] | 126 to 127 °C |
| COc1cccc(CN2CCCc3cc(O)c(OC)cc3C2)c1 [compound 307, 7-Hydroxy-8-methoxy-2-(3-methoxybenzyl)-2,3,4,5-tetrahydro-1H-benzo[e]azepine] | 114 to 115 °C |
| COc1cc2c(cc1O[Si](C(C)C)(C(C)C)C(C)C)CCN(Cc1cccc([N+](=O)[O-])c1)C2 | 57.3 to 58.6 °C |
| COc1cc2c(cc1O)CCN(CC(=O)c1ccc(OC)c(OC)c1)C2 [compound 53, 2-(2-(3,4-Dimethoxyphenyl)-2-oxoethyl)-6-hydroxy-7-methoxy-1,2,3,4-tetrahydroisoquinoline] | 149 to 150 °C |
| COc1ccc(CN2CCCc3cc(OCc4ccccc4)c(OC)cc3C2)cc1 [compound 304, 7-Benzyloxy-8-methoxy-2-(4-methoxybenzyl)-2,3,4,5-tetrahydro-1H-benzo[c]azepine] | 87 to 88 °C |
| COc1cc2c(cc1OCc1ccccc1)CC(C)(C)N(C(=O)c1cc(OC)c(OC)c(OC)c1)C2C (centres unmarked) [compound 245, (6-(Benzyloxy)-3,4-dihydro-7-methoxy-1,3,3-trimethylisoquinolin-2(1H)-yl)-(3,4,5-trimethoxyphenyl)methanone] | 175 to 177 °C |
| COc1cccc(C(=O)N2CCc3cc(OCc4ccccc4)c(OC)cc3C2=O)c1 [compound 131, 6-Benzyloxy-7-methoxy-2-(3-methoxybenzoyl)-3,4-dihydro-2H-isoquinoline-1-one] | 141 to 143 °C |
| COc1cc(OC)cc(C(=O)N2Cc3cc(OC)c(O)cc3CC2(C)C)c1 [compound 235, (3,4-Dihydro-6-hydroxy-7-methoxy-3,3-dimethylisoquinolin-2(1H)-yl)(3,5-dimethoxyphenyl)methanone] | 163 to 166 °C |
| COc1cc2c(cc1OCc1ccccc1)CCC(=O)N2Cc1cc(OC)c(OC)c(OC)c1 [compound 289, 6-(Benzyloxy)-7-methoxy-1-(3,4,5-trimethoxybenzyl)-3,4-dihydro-1H-quinolin-2-one] | 129 to 130 °C |
| COc1cc2c(cc1O)CCCN(Cc1ccccc1OC)C2 [compound 306, 7-Hydroxy-8-methoxy-2-(2-methoxybenzyl)-2,3,4,5-tetrahydro-1H-benzo[c]azepine] | 136 to 137 °C |
| COc1ccccc1CN1CCCc2cc(OCc3ccccc3)c(OC)cc2C1 [compound 302, 7-Benzyloxy-8-methoxy-2-(2-methoxybenzyl)-2,3,4,5-tetrahydro-1H-benzo[c]azepine] | 105 to 106 °C |
| COc1cc2c(cc1OS(N)(=O)=O)CCN(Cc1cccc(NS(C)(=O)=O)c1)C2 [compound 88, 7-Methoxy-2-(3-(methylsulfonamido)benzyl)-1,2,3,4-tetrahydroisoquinolin-6-yl sulfamate] | 151 to 152 °C |

The next lines start with the values.

| melting point | SMILES |
| --- | --- |
| 62 to 63 °C | COc1cc2c(cc1O)C(O)CN(Cc1cc(OC)c(OC)c(OC)c1)C2 (centres unmarked) [F29, 7-Methoxy-2-(3,4,5-trimethoxybenzyl)-1,2,3,4-tetrahydroisoquinoline-4,6-diol] |
| 148 to 155 °C | COc1ccccc1CN1CCc2cc(O)ccc2C1 [B16, 2-(2-Methoxybenzyl)-1,2,3,4-tetrahydroisoquinolin-6-ol] |
| 167 to 172 °C | COc1cccc(C(=O)N2CCc3cc(O)ccc3C2)c1OC [B9, 2-(2,3-Dimethoxybenzoyl)-1,2,3,4-tetrahydroisoquinolin-6-ol] |
| 109 to 112 °C | COc1cc(O)c(CN2CCc3cc(O)ccc3C2)c(OC)c1 [B28, 2-(2-Hydroxy-4,6-dimethoxybenzyl)-1,2,3,4-tetrahydroisoquinolin-6-ol] |
| 169 to 172 °C | Oc1ccc2c(c1)CCN(Cc1ccc3c(c1)OCO3)C2 [B24, 2-(Benzo[d][1,3]dioxol-5-ylmethyl)-1,2,3,4-tetrahydroisoquinolin-6-ol] |
| 110 to 111 °C | COc1cc2c(cc1O)CCN(Cc1cc(F)cc(F)c1)C2 [F6, 2-(3,5-Difluorobenzyl)-7-methoxy-1,2,3,4-tetrahydroisoquinolin-6-ol] |
| 63 to 87 °C | Oc1ccc2c(c1)CCN(Cc1ccc3c(c1)OCO3)C2 [B2, 2-Piperonyl-1,2,3,4-tetrahydroisoquinolin-6-ol] |
| 133 to 134 °C | COc1cccc(CN2Cc3cc(OC)c(O)cc3C(OC)C2)c1 (centres unmarked) [F31, 4,7-Dimethoxy-2-(3-methoxybenzyl)-1,2,3,4-tetrahydro-isoquinolin-6-ol] |
| 189 to 195 °C | COc1cc(CN2CCc3cc(O)ccc3C2)cc(OC)c1 [B20, 2-(3,5-Dimethoxybenzyl)-1,2,3,4-tetrahydroisoquinolin-6-ol] |
| 94 to 96 °C | CCOC1CN(Cc2cc(OC)c(OC)c(OC)c2)Cc2cc(OC)c(O)cc21 (centres unmarked) [F37, 4-Ethoxy-7-methoxy-2-(3,4,5-trimethoxybenzyl)-1,2,3,4-tetrahydroisoquinolin-6-ol] |
| 119 to 122 °C | COc1ccc(CN2CCc3cc(O)ccc3C2)cc1OC [B23, 2-(3,4-Dimethoxybenzyl)-1,2,3,4-tetrahydroisoquinolin-6-ol] |
| 154 to 157 °C | CCOC1CN(Cc2ccc(OC)cc2)Cc2cc(OC)c(O)cc21 (centres unmarked) [F36, 4-Ethoxy-7-methoxy-2-(4-methoxybenzyl)-1,2,3,4-tetrahydroisoquinolin-6-ol] |
| 37 to 53 °C | COc1cc(CC(=O)N2CCc3cc(O)ccc3C2)cc(OC)c1OC [B5, 2-(3,4,5-Trimethoxyphenylacetyl)-1,2,3,4-tetrahydroisoquinolin-6-ol] |
| 180 to 186 °C | COc1cc(CCN2CCc3cc(O)ccc3C2)cc(OC)c1OC [B29, 2-(3,4,5-Trimethoxyphenethyl)-1,2,3,4-tetrahydroisoquinolin-6-ol] |
| 45 to 47 °C | COc1cc2c(cc1O)C(OC)CN(Cc1ccccc1OC)C2 (centres unmarked) [F30, 4,7-Dimethoxy-2-(2-methoxybenzyl)-1,2,3,4-tetrahydro-isoquinolin-6-ol] |
| 156 to 158 °C | COC(=O)c1cccc(CN2CCc3cc(O)c(OC)cc3C2)c1 [70A, 2-(3-(Methoxycarbonyl)benzyl)-6-hydroxy-7-methoxy-1,2,3,4-tetrahydroisoquinoline] |
| 132 to 133 °C | CCOC1CN(Cc2cc(OC)c(OC)c(OC)c2)Cc2cc(OC)c(OCc3ccccc3)cc21 (centres unmarked) [F26, 6-Benzyloxy-4-ethoxy-7-methoxy-2-(3,4,5-trimethoxybenzyl)-1,2,3,4-tetrahydro-isoquinoline] |
| 236 to 239 °C | COc1cc2c(cc1O)CCN(S(=O)(=O)c1cccc(CC(=O)O)c1)C2=O [203A, 6-Hydroxy-7-methoxy-2-(3-carboxymethyl-benzenesulfonyl)-3,4-dihydro-2H-isoquinolin-1-one] |
| 158 °C | CCOc1cc(C(=O)N2CCc3cc(O)ccc3C2)cc(OCC)c1OCC [B14, 2-(3,4,5-Triethoxybenzoyl)-1,2,3,4-tetrahydroisoquinolin-6-ol] |
| 61 to 86 °C | COc1ccc(OC)c(C(=O)N2CCc3cc(O)ccc3C2)c1 [B7, 2-(2,5-Dimethoxybenzoyl)-1,2,3,4-tetrahydroisoquinolin-6-ol] |
| 180 to 188 °C | COc1cc(OC)c(C(=O)N2CCc3cc(O)ccc3C2)cc1OC [B11, 2-(2,4,5-Trimethoxybenzoyl)-1,2,3,4-tetrahydroisoquinolin-6-ol] |

From patent publication US8394825B2, “Compound” (Sterix Limited, priority 2007, dated 2013)
